# Reference: patent publication US11512128B2, “VEGF/DLL4 binding agents and uses thereof” (MEREO BIOPHARMA 5, INC., priority 2011, dated 2022)
# B1: 219R45-MB-21R83: anti-VEGF/anti-DLL4 monovalent/bispecific antibody, heavy chains SEQ ID NO:7 and 62, light chains SEQ ID NO:8 (antibody)
# heavy 1: QVQLVQSGAEVKKPGASVKVSCKASGYTFTNYWMHWVRQAPGQGLEWMGDINPSNGRTSYKEKFKRRVTLSVDKSSSTAYMELSSLRSEDTAVYFCTIHYDDKYYPLMDYWGQGTLVTVSSASTKGPSVFPLAPCSRSTSESTAALGCLVKDYFPEPVTVSWNSGALTSGVHTFPAVLQSSGLYSLSSVVTVPSSNFGTQTYTCNVDHKPSNTKVDKTVERKCCVECPPCPAPPVAGPSVFLFPPKPKDTLMISRTPEVTCVVVDVSHEDPEVQFNWYVDGVEVHNAKTKPREEQFNSTFRVVSVLTVVHQDWLNGKEYKCKVSNKGLPAPIEKTISKTKGQPREPQVYTLPPSREKMTKNQVSLTCLVKGFYPSDIAVEWESNGQPENNYKTTPPMLKSDGSFFLYSKLTVDKSRWQQGNVFSCSVMHEALHNHYTQKSLSLSPGK
# heavy 2: QVQLVQSGAEVKKPGASVKISCKASGYSFTAYYIHWVKQAPGQGLEWIGYISNYNRATNYNQKFKGRVTFTTDTSTSTAYMELRSLRSDDTAVYYCARDYDYDVGMDYWGQGTLVTVSSASTKGPSVFPLAPCSRSTSESTAALGCLVKDYFPEPVTVSWNSGALTSGVHTFPAVLQSSGLYSLSSVVTVPSSNFGTQTYTCNVDHKPSNTKVDKTVERKCCVECPPCPAPPVAGPSVFLFPPKPKDTLMISRTPEVTCVVVDVSHEDPEVQFNWYVDGVEVHNAKTKPREEQFNSTFRVVSVLTVVHQDWLNGKEYKCKVSNKGLPAPIEKTISKTKGQPREPQVYTLPPSREEMTKNQVSLTCLVEGFYPSDIAVEWESNGQPENNYKTTPPMLDSDGSFFLYSELTVDKSRWQQGNVFSCSVMHEALHNHYTQKSLSLSPGK
# light: DIVMTQSPDSLAVSLGERATISCRASESVDNYGISFMKWFQQKPGQPPKLLIYAASNQGSGVPDRFSGSGSGTDFTLTISSLQAEDVAVYYCQQSKEVPWTFGGGTKVEIKRTVAAPSVIFPPSDEQLKSGTASVVCLLNNFYPREAKVQWKVDNALQSGNSQESVTEQDSKDSTYSLSSTLTLSKADYEKHKVYACEVTHQGLSSPVTKSFNRGEC
# modifications: 21R79 Heavy chain without predicted signal sequence; 21R83 Heavy chain without signal sequence; Light chain without predicted signal sequence
# What was measured:
# [1] = system: OMP-PN8 pancreatic tumor cells; test: Tumorigenicity of OMP-PN8 pancreatic tumor cells after treatment (serial transplantation); type: in vivo, NOD/SCID mice; settings: 90 cells from treated tumors transplanted, day 55, no treatment; 21M18, bevacizumab 15 mg/kg, bispecifics 30 mg/kg, gemcitabine 70 mg/kg, four weeks
# Description: FIG. 6. Tumorigenicity of pancreatic tumor cells after treatment with anti-VEGF/anti-DLL4 bispecific antibodies. OMP-PN8 tumor cells from mice treated with control antibody, anti-hDLL4 antibody 21M18, anti-VEGF antibody bevacizumab, or anti-VEGF/anti-DLL4 bispecific antibodies 219R45-MB-21M18 or 219R45-MB-21R79 with or without gemcitabine were processed to single cell suspensions, and serially transplanted into mice. 90 cells from each treatment group were injected subcutaneously into NOD/SCID mice. Tumors were allowed to grow with no treatment. Data is shown as tumor volume (mm^3) on day 55. Tumor frequency is shown as number of tumors over total number of mice injected in each group.
# Mice bearing OMP-PN8 pancreatic tumors were treated with control antibody (15 mg/kg), anti-hDLL4 antibody 21M18 (15 mg/kg), anti-VEGF antibody bevacizumab (15 mg/kg), or anti-VEGF/anti-DLL4 bispecific antibodies 219R45-MB-21M18 or 219R45-MB-21R79 (30 mg/kg) with or without gemcitabine (70 mg/kg). Following four weeks of treatment, tumors were harvested, processed to single cell suspensions and the human tumor cells were purified by immunomagnetic depletion of murine cells. 90 human tumor cells from each treatment group were transferred to a new cohort of mice (n=10 mice/group). Tumors were allowed to grow for 55 days without any treatment and tumor volumes were measured with electronic calipers.
# [2] = system: OMP-C8 colon tumor; test: Tumorigenicity of OMP-C8 colon tumors after treatment (serial transplantation); type: in vivo, NOD/SCID mice; settings: 150 cells from treated tumors transplanted, day 68; without irinotecan combination
# Description: FIG. 10. Tumorigenicity of […] colon tumor cells after treatment with anti-VEGF/anti-DLL4 bispecific antibodies. Tumors from mice treated with control antibody, anti-hDLL4 antibody 21M18, anti-VEGF antibody bevacizumab, a combination of 21M18 and bevacizumab, or anti-VEGF/anti-DLL4 bispecific antibodies 219R45-MB-21M18 or 219R45-MB-21R79 with or without irinotecan were processed to single cell suspensions, and serially transplanted into mice. 150 cells from each treatment group were injected subcutaneously into NOD/SCID mice. Tumors were allowed to grow with no treatment. Data are shown as tumor volume (mm^3) on day 68.
# Single cell suspensions of OMP-C8 colon tumor xenografts (20,000 cells) were injected subcutaneously into the flanks of 6-8 week old NOD/SCID mice. Tumors were allowed to grow for 33 days until they reached an average volume of 300 mm^3. The mice were randomized (n=5 per group) and treated with anti-DLL4 antibody 21M18, anti-VEGF antibody bevacizumab, a combination of antibodies 21M18 and bevacizumab, anti-VEGF/anti-DLL4 bispecific antibody 219R45-MB-21M18, anti-VEGF/anti-DLL4 bispecific antibody 219R45-MB-21R79, or control antibody, either in combination with irinotecan or without irinotecan. Antibodies and irinotecan were dosed weekly by injection into the intraperitoneal cavity. Antibodies 21M18 and bevacizumab were dosed at 7.5 mg/kg, bispecific antibodies 219R45-MB-21M18 and 219R45-MB-21R79 were dosed at 15 mg/kg, and irinotecan was dosed at 45 mg/kg. Tumors were harvested after 4 weeks, processed into single cell suspensions, and the human tumor cells were isolated. 150 tumor cells from each experimental group were injected subcutaneously into a new cohort of mice (n=10 per group) and tumors were allowed to grow without treatment. Tumor growth was monitored and tumor volumes were measured with electronic calipers.
# [3] = system: OMP-C8 colon tumor cells; test: Tumor growth in human skin graft model; type: in vivo, NOD-SCID mice; settings: 25 mg/kg intraperitoneally once a week
# Description: FIG. 5. Inhibition of colon tumor growth in vivo by an anti-VEGF/anti-DLL4 bispecific antibody. OMP-C8 colon tumor cells were injected subcutaneously into a human skin graft in NOD/SCID mice. Mice were treated with control antibody (-▪-), anti-hDLL4 antibody 21M18 (-▴-), anti-VEGF antibody bevacizumab (-∘-), or anti-VEGF/anti-DLL4 bispecific antibody 219R45-MB-21M18 (-▾-). Data is shown as tumor volume (photons/sec) over days post-treatment. Antibodies were administered intraperitoneally at a dose of 25 mg/kg once a week.
# A human skin graft model has been reported which comprises a human skin graft and human tumor cells. A human skin graft is established and then human tumor cells are implanted into the skin graft, allowing the tumor cells to grow in an environment with human stroma and vasculature (Tahtis et al., 2003, Mol. Cancer Ther. 2:[…]). Human skin samples were obtained from neonatal foreskin tissue and grafted onto the lateral flank of NOD-SCID mice. After establishment of the skin graft, luciferase-labeled OMP-C8 colon tumor cells (20,000 cells) were injected intradermally into the human skin. Tumor growth was monitored by bioluminescence imaging using an IVIS imaging system (Caliper Life Sciences, Mountain View, Calif.). Tumors were allowed to grow until they reached 1.2×10^6 photons per second. Tumor-bearing mice (n=6 mice/group) were randomized and treated with control Ab, anti-hDLL4 antibody 21M18, anti-VEGF antibody bevacizumab, or anti-VEGF/anti-DLL4 bispecific antibody 219R45-MB-21M18. Animals were treated once a week and antibodies were administered intraperitoneally at a dose of 25 mg/kg. Tumor growth was monitored by bioluminescence imaging on the indicated days.
# [4] = system: OMP-C8 colon tumor; test: OMP-C8 colon tumor growth in vivo; design: species or system NOD/SCID mice
# Description: FIGS. 11A and 11B. Inhibition of colon tumor growth in vivo by anti-VEGF/anti-DLL4 bispecific antibodies. OMP-C8 colon tumor cells were injected subcutaneously into NOD/SCID mice. Mice were treated with control antibody (-▪-), anti-VEGF antibody bevacizumab (-▴-), or anti-VEGF/anti-DLL4 bispecific antibodies 219R45-MB-21M18 (-⋄-), 219R45-MB-21R75 (-●-), 219R45-MB-21R79 (-∘-), or 219R45-MB-21R83 (-▾-). Mice were treated with antibodies as single agents (FIG. 11A) or in combination with irinotecan (FIG. 11B). Antibodies were administered intraperitoneally at a dose of 15 mg/kg once a week and irinotecan at a dose of 7.5 mg/kg one a week. Data are shown as tumor volume (mm^3) over days post-treatment.
# Single cell suspensions of OMP-C8 colon tumor xenografts (50,000 cells) were injected subcutaneously into the flanks of 6-8 week old NOD/SCID mice. Tumors were allowed to grow for 21 days until they reached an average volume of 80 mm^3. The mice were randomized (n=8 per group) and treated with anti-DLL4 antibody 21M18, anti-VEGF antibody bevacizumab, anti-VEGF/anti-DLL4 bispecific antibodies 219R45-MB-21M18, 219R45-MB-21R75, 219R45-MB-21R79, 219R45-MB-21R83, or control antibody, either alone or in combination with irinotecan. Antibodies and irinotecan were dosed weekly by injection into the intraperitoneal cavity. Bevacizumab and bispecific antibodies 219R45-MB-21M18, 219R45-MB-21R75, 219R45-MB-21R79, and 219R45-MB-21R83 were dosed at 15 mg/kg, and irinotecan was dosed at 7.5 mg/kg. Tumor growth was monitored and tumor volumes were measured with electronic calipers at the indicated time points. Data are expressed as mean±S.E.M.
# Following the treatment phase, tumor sections were prepared and analyzed by hematoxylin and eosin (H&E) staining. […] This is characteristic of highly necrotic tumor tissue.
Molecule,tumor growth frequency (mice with tumors) [1],"tumor growth frequency, single agents [2]",inhibition of tumor growth (bioluminescence) [3],"inhibition of tumor growth in combination with irinotecan ([4]; antibody 15 mg/kg, irinotecan 7.5 mg/kg weekly ip)",H&E staining of tumor sections after treatment ([4]; in combination with irinotecan)
"Nc1ccn([C@@H]2O[C@H](CO)[C@@H](O)C2(F)F)c(=O)n1 [gemcitabine, reference compound]",10 out of 10,–,–,–,–
"CCc1c2c(nc3ccc(OC(=O)N4CCC(N5CCCCC5)CC4)cc13)-c1cc3c(c(=O)n1C2)COC(=O)[C@]3(O)CC [irinotecan, reference compound]",–,reduced tumor growth frequency,–,–,–
bevacizumab [reference compound],10 out of 10,had no effect on tumor growth frequency,inhibited tumor growth,–,–
B1,–,–,–,greatest inhibition of tumor growth,dark pink staining regions providing evidence of extensive calcification
